One substance from patent publication US20030060438A1, “Oligonucleotides and other modulators of the NK-1 receptor pathway and therapeutic uses thereof” (priority 2000, published 2003) can be followed below.

The subject of series [1] is NK-1 receptor. The experiment in a line: Neuropathic pain model (sciatic nerve constriction), mechanical allodynia by von Frey hairs, intrathecal oligonucleotide. The class given is in vivo, rat. As to the method:
Neuropathic pain is a continuous, permanent pain that results from nerve damage. One common feature of neuropathic pain is mechanical allodyina (a painful response to a non-painful stimulus). Humans with neuropathic pain cannot wear clothing on affected regions of the skin or cannot stand in air currents, because their sensitivity is so profound. Neuropathic pain was induced by constriction of the sciatic nerve. Mechanical response thresholds (grams of force) were assessed by application of von Frey hairs to the plantar surface of the ipsilateral hind paw for all groups prior to sciatic nerve constriction surgery (baseline values: B). Oligonucleotides or ASCF control ([…]) via Alzet® minipumps attached to intrathecal catheters for spinal delivery. […] Statistical analyses on mechanical thresholds were performed using the non-parametric Friedman's repeated measures analysis of variance on ranks followed by Wilcoxon signed rank test for post hoc comparisons. […] The lower panel illustrates the mechanical response thresholds are not affected in the contralateral hind paw.
Neuropathic pain was induced by constriction of the sciatic nerve. Mechanical response thresholds (grams of force) were assessed by application of von Frey hairs to the plantar surface of the ipsilateral hind paw for all groups prior to sciatic nerve constriction surgery (baseline values: B). Oligonucleotides or ASCF control ([…]) via Alzet® minipumps attached to intrathecal catheters for spinal delivery.
(§1) Neuropathic pain was induced by constriction of the sciatic nerve. Mechanical response thresholds (grams of force) were assessed by application of von Frey hairs to the plantar surface of the ipsilateral hind paw for all groups prior to sciatic nerve constriction surgery (baseline values: B). Oligonucleotides or ASCF control (artificial cerebral spinal fluid) was administered for 72 h by continuous infusion (2 micro grams/microlitres/h) via Alzet® minipumps attached to intrathecal catheters for spinal delivery starting 6 days following nerve constriction (once the mechanical allodynia was established in all groups).
as §1, with “6 days” for “72 h”, “(0.45” for “(2”, “7” for “6”

Series [2] relates to NK-1 receptor. The series is described as follows: CFA arthritis model, joint flexibility, systemic oligonucleotide. Format: in vivo, rat. The following applies: day 18 after CFA; 300 micro grams/kg, Q12 h, intraperitoneal. As to the method: Complete Freund's Adjuvant (CFA) was injected into the ankle joint of the rat and the flexibility of the affected joint was assessed on day 18 during the arthritic phase of the model. This was accomplished by measuring the difference between the extension and flexion of the affected joint. Antisense (AS) oligonucleotide (300 micro grams/kg, Q12 h, intraperitoneal) or saline was administered for 2 days prior to CFA injection and for the subsequent 18 days. […] Statistical analysis was performed using a one way ANOVA and post hoc analysis using the Dunnett's test.

In series [3] the test system is NK-1 receptor. The series is described as follows: Formalin test, intrathecal oligonucleotide. Format: in vivo, rat. As to the method:
The formalin test is similar in some ways to the capsaicin test, in that a noxious chemical is injected under the skin. In the case of formalin, however, this produces nociceptive behavior lasting up to one hour, and thus represents a longer-term tonic pain. The pain score was determined using the same parameters outlined above for the capsaicin test. Oligonucleotides or ASCF control (artificial cerebral spinal fluid) were administered for 7 days prior to testing by continuous infusion (1 micro grams/microlitres/h) via Alzet® minipumps attached to intrathecal catheters for spinal delivery. […] Statistical analysis was performed by a two way ANOVA with time and treatment as independent measures. Time: F(9,44)=8.264, p<0.05, Treatment: F(9,44)=7.254, p<0.05.
Antisense (AS) oligonucleotide or ASCF control (artificial cerebral spinal fluid) was administered for 7 days prior to testing by continuous infusion (0.45 micro grams/microlitres/h) via Alzet® minipumps attached to intrathecal catheters for spinal delivery. […] Statistical analysis was performed by a two way ANOVA with time and treatment as independent measures. Time: F(9,17)=7.985, p<0.05, Treatment: F(9,17)=2.541, p>0.05.

Series [4] concerns NK-1 receptor. The experiment in a line: Intradermal substance P-induced plasma extravasation in skin (Evans blue). The class given is in vivo, rat. The following applies: 300 micro grams/kg, Q12 h, intraperitoneal for 6 days; intradermal substance P 6.7 nmol/100 microlitres. As to the method:
Intradermal injection of substance P and neurokinin A produce a wheal and flare inflammatory reaction. Antisense (AS) oligonucleotide (300 micro grams/kg, Q12 h, intraperitoneal) or saline was administered for 6 days prior to experimentation. Substance P or neurokinin A was injected into the dermis of the skin (6.7 nmol/100 microlitres) after intravenous administration of evans blue dye which allows for assessment of neuropeptide-induced plasma extravasation. […] Statistical analysis was performed using an unpaired t-test.

Series [5] deals with NK-1 receptor. The experiment in a line: Substance P-induced thermal hyperalgesia, intrathecal oligonucleotide. The class given is in vivo. The following applies: intrathecal 75 micro grams/10 microlitres Q12h with SP. As to the method:
The effect of intrathecal (spinal) administration of NK-1 receptor antisense oligonucleotide on substance P-induced thermal hyperalgesia is shown in FIG. 1.
Latency to thermal stimulation (baseline (B) recordings) was assessed prior to intrathecal injection of substance P (SP, indicated by the arrow in both upper and lower panels). On day 0 (before oligonucleotide treatment has begun), SP (6.7 nmol/10 microlitres) produced a decrease in thermal latency to response indicating the occurrence of hyperalgesia (exaggerated response to noxious or painful stimulation, hollow symbols on both upper and lower panels). Oligonucleotide treatment (75 micro grams/10 microlitres, Q12h for 6 days) or ASCF control (artificial cerebral spinal fluid) was commenced subsequent to assessment of substance P-induced thermal hyperalgesia on day 0. Intrathecal SP (6.7 nmol/10 microlitres, Q12h for 6 days) was administered, in addition to the oligonucleotide, to stimulate NK-1 receptor turnover. Three days after twice-daily injections of antisense (AS) were begun, SP-induced thermal hyperalgesia was attenuated (upper graph, triangles). […] Statistical analysis was performed by a two way ANOVA with time and treatment as independent measures. Time: F(6,21)=10.234, p<0.01, Treatment: F(6,21)=8.245, p<0.05.

Series [6] deals with NK-1 receptor. The experiment in a line: Western blot of NK-1 receptor protein in lumbar spinal cord after intrathecal oligonucleotide, neuropathic pain model. The class given is in vivo, rat. The following applies: intrathecal 2 micro grams/microlitres/h, 48 h prior to sciatic nerve constriction and continuously for 6 days. As to the method: Oligonucleotides or ASCF control (artificial cerebral spinal fluid) was administered for 48 h prior to sciatic nerve constriction and continuously for 6 days (2 micro grams/microlitres/h) via Alzet® minipumps attached to intrathecal catheters for spinal delivery. Rats were sacrificed by decapitation and lumbar spinal cords were dissected and processed for Western blotting analysis. Samples were resolved using 10% Tris-glycine gels and the proteins were electroblotted onto nitrocellulose membranes. Molecular mass markers are presented in the right column. The arrow indicates the NK-1 receptor.
A general note: Immunoblotting shows a protein as a band on a membrane.

Setting [7] is: intrathecal 2 micro grams/microlitres/h for 72 h starting 6 days following nerve constriction.

Entries after “also recorded” stand apart in the source; their conditions may differ.

As for “5′gac gtt atc cat ttt ggg g3′ (antisense GACGTTATCCATTTTGGGG; listed as DNA, chemistry not fully specified) [NK-1 receptor antisense oligonucleotide used in all experiments]”, the “reversal of established mechanical allodynia, lower dose” value in the series with NK-1 receptor [1] (intrathecal 0.45 micro grams/microlitres/h for 6 days starting 7 days following nerve constriction) is reported as “had no effect in reversing the decrease in mechanical thresholds”. Moreover, the “prevention of mechanical allodynia, delivery to sacral rather than lumbar spinal cord” value in the series with NK-1 receptor [1] (intrathecal 1 micro grams/microlitres/h from 2 days prior to surgery, catheter just less than 1 cm from lumbar level) is “failed to prevent the development of allodynia”. In the series on NK-1 receptor [1] (setting [7]), the “mechanical response threshold, contralateral side” value is given as “no effect” and the “reversal of established mechanical allodynia, ipsilateral hind paw” value is “reversed allodynia”. The “mechanical response threshold, ipsilateral hind paw (prevention of mechanical allodynia)” value in the series on NK-1 receptor [1] (intrathecal (lumbar) 1 micro grams/microlitres/h from 2 days prior to sciatic nerve constriction and throughout testing) is on record as “did not show a decrease in their threshold of mechanical stimulation”. For the same substance, in the series with NK-1 receptor [2], the “joint flexibility (difference between extension and flexion) compared to saline controls” value was “significantly improved flexibility”; the “joint flexibility compared to naïve animals” value is “not significantly different”. Moreover, in the series with NK-1 receptor [3] (intrathecal continuous infusion 0.45 micro grams/microlitres/h for 7 days prior to testing), the “formalin-induced nociceptive responses, lower dose” value is reported as “without effect; also recorded: no attenuation”. Further, in the series on NK-1 receptor [3] (intrathecal continuous infusion 1 micro grams/microlitres/h for 7 days prior to testing), the formalin-induced nociceptive scores result is given as “nociceptive scores are less”. Further, the “substance P-induced plasma extravasation (skin)” value in the series with NK-1 receptor [4] is recorded as “significantly reduced”. For the same substance, in the series on NK-1 receptor [5] (six days after start), the “SP-induced thermal hyperalgesia (thermal latency)” value was “further decrease in the response to SP”. In addition, the “SP-induced thermal hyperalgesia (thermal latency)” value in the series with NK-1 receptor [5] (three days after start) is listed as “attenuated”. The “NK-1 receptor protein expression (Western blot) compared to ACSF control” value in the series on NK-1 receptor [6] is recorded as “significantly attenuates the protein expression”.
